Experimental data from US6617338B2, “Orally administrable acid stable antiulcer benzimidazole derivatives” (priority 2000, dated 2003).

Test system: pylorus ligated rats
Test: Pylorus ligated rats: total acid output and ulcer index
Assay type: in vivo, Wistar albino rats
Conditions: 0.4 mg/kg × 1 day p.o., mean ± SEM
Text: The distribution of animals in groups, the sequence of trials and the treatment allotted to each group were randomized. Gastric ulceration was produced by pylorus ligation and absolute ethanol administration. In these methods, animals were fasted for 36 hrs before the experiment. Coprohagy was prevented by fasting the animals in cages with grating as the floor. […] The animals were sacrificed using anaesthetic ether after the completion of experiments; the stomachs were removed, opened along the greater curvature, washed with saline and examined with 6.4* (cm diameter) binocular magnifier. Lesions were assessed by two observers unaware of the experimental protocol. […] They were administered per orally, 30 minutes after the drug treatment the animals were subjected to any ulcerogenic procedure. Rats were anesthetized with anaesthetic ether and the portion of abdomen was opened by a small midline incision below the xiphoid process. Pylorus portion of the stomach was lifted and ligated. […] The stomach was isolated from the body and its contents were collected, measured and centrifuged. […] Immediately after the removal of the contents from the stomach, they were examined for lesions in the stomach portion which were measured and expressed in terms of ulcer index calculated as the total ulcerated area divided by the total mucosal area.

Substance: 5-methoxy-2[(4-methoxy-3,5-dimethyl-2-pyridinyl)sulfinyl]-1H-benzimidazole [Omeprazole]
- Total acid output (pylorus ligation 19 hours): 72.93 ± 7.17 meq/L/100 g
- Ulcer index (total ulcerated area divided by total mucosal area): 0.88 ± 0.10
